Results taken from PubChem BioAssay AID330 (DTP/NCI, 2004).
Where “and” joins values, the source holds several entries; their conditions need not be identical. Equal values may be shown once. Toxic doses and inconclusive results are not listed. The calls were made as follows: active = survival T/C of 150% or more; inactive = T/C below 125% in these data.

System: P388 leukemia ip, CD2F1 mice, survival T/C
Test: NCI In Vivo Anticancer Drug Screen. Data for tumor model P388 Leukemia (intraperitoneal) in CD2F1 (CDF1) mice
Conditions: endpoint: median survival time, higher = longer survival
How it was run: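 Mice carrying the transplanted tumor received test compound or vehicle. Survival was recorded in each group, and the value is the treated-group measurement divided by that of the vehicle-treated control group.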

[1] = dose: 50.0 mg/kg/injection, schedule: Q04DX003 (ip), vehicle: saline with Tween-80
[2] = dose: 100.0 mg/kg/injection, schedule: Q04DX003 (ip), vehicle: saline with Tween-80
[3] = dose: 200.0 mg/kg/injection, schedule: Q04DX003 (ip), vehicle: saline with Tween-80
[4] = dose: 100.0 mg/kg/injection, schedule: Q04DX003 (ip), vehicle: saline
[5] = dose: 200.0 mg/kg/injection, schedule: Q04DX003 (ip), vehicle: saline
[6] = dose: 25.0 mg/kg/injection, schedule: Q01DX009 (ip), vehicle: saline with Tween-80
[7] = dose: 50.0 mg/kg/injection, schedule: Q01DX009 (ip), vehicle: saline with Tween-80
[8] = dose: 50.0 mg/kg/injection, schedule: Q01DX005 (ip), vehicle: Klucel (hydroxypropylcellulose) (HPC)
[9] = dose: 100.0 mg/kg/injection, schedule: Q01DX005 (ip), vehicle: Klucel (hydroxypropylcellulose) (HPC)
[10] = dose: 200.0 mg/kg/injection, schedule: Q01DX005 (ip), vehicle: Klucel (hydroxypropylcellulose) (HPC)
[11] = dose: 50.0 mg/kg/injection, schedule: Q01DX009 (ip), vehicle: suspension in saline
[12] = dose: 100.0 mg/kg/injection, schedule: Q01DX009 (ip), vehicle: suspension in saline
[13] = dose: 60.0 mg/kg/injection, schedule: Q01DX005 (ip), vehicle: saline with Tween-80
[14] = dose: 120.0 mg/kg/injection, schedule: Q01DX005 (ip), vehicle: saline with Tween-80
[15] = dose: 240.0 mg/kg/injection, schedule: Q01DX005 (ip), vehicle: saline with Tween-80
[16] = dose: 25.0 mg/kg/injection, schedule: Q01DX009 (ip), vehicle: saline
[17] = dose: 50.0 mg/kg/injection, schedule: Q01DX009 (ip), vehicle: saline
[18] = dose: 100.0 mg/kg/injection, schedule: Q01DX009 (ip), vehicle: saline
[19] = dose: 200.0 mg/kg/injection, schedule: Q01DX009 (ip), vehicle: saline
[20] = dose: 100.0 mg/kg/injection, schedule: Q01DX009 (ip), vehicle: saline with Tween-80
[21] = dose: 200.0 mg/kg/injection, schedule: Q01DX009 (ip), vehicle: saline with Tween-80
[22] = dose: 50.0 mg/kg/injection, schedule: Q01DX009 (ip), vehicle: Klucel (hydroxypropylcellulose) (HPC)
[23] = dose: 100.0 mg/kg/injection, schedule: Q01DX009 (ip), vehicle: Klucel (hydroxypropylcellulose) (HPC)
[24] = dose: 200.0 mg/kg/injection, schedule: Q01DX009 (ip), vehicle: Klucel (hydroxypropylcellulose) (HPC)
[25] = dose: 12.5 mg/kg/injection, schedule: Q01DX009 (ip), vehicle: saline

Measured: T/C

CCCCCCCCC(Cn1ccnc1)c1ccc(F)cc1 (stereo unspecified)
inactive: [1] 106 % of control | [2] 100 % of control and 103 % of control | [3] 100 % of control

O=C1CC(=P(c2ccccc2)(c2ccccc2)c2ccccc2)C(=O)O1
inactive: dose: 50.0 mg/kg/injection, schedule: Q04DX003 (ip), vehicle: saline 102 % of control | [4] 100 % of control | [5] 109 % of control | dose: 400.0 mg/kg/injection, schedule: Q04DX003 (ip), vehicle: saline 106 % of control

CCN(CC)CCNc1cc(C)nc2c1ccc1c2ccc2c(NCCN(CC)CC)cc(C)nc21
inactive: dose: 12.5 mg/kg/injection, schedule: Q01DX009 (ip), vehicle: water 104 % of control | dose: 25.0 mg/kg/injection, schedule: Q01DX009 (ip), vehicle: water 113 % of control | dose: 50.0 mg/kg/injection, schedule: Q01DX009 (ip), vehicle: water 97 % of control

CN(CCCN(C)CCC1CCCCC1)CCC1CCCCC1
inactive: dose: 12.5 mg/kg/injection, schedule: Q01DX009 (ip), vehicle: saline with Tween-80 100 % of control | [6] 103 % of control | [7] 105 % of control

CC1OC(OC2C(Oc3cc(O)c4c(c3)O[C@H](c3ccc(O)cc3)CC4=O)OC(CO)C(O)C2O)C(O)C(O)C1O (stereo partly specified)
inactive: [8] 97 % of control | [9] 97 % of control | [10] 101 % of control

CCCCOc1cc([N+](=O)[O-])ccc1CO
inactive: [2] 100 % of control | [3] 100 % of control | dose: 400.0 mg/kg/injection, schedule: Q04DX003 (ip), vehicle: saline with Tween-80 95 % of control

O=C1CSC(=S)N1c1cc(Cl)c(Cl)cc1Cl
inactive: [11] 102 % of control | [12] 100 % of control | dose: 200.0 mg/kg/injection, schedule: Q01DX009 (ip), vehicle: suspension in saline 93 % of control

Oc1cc2c(cc1C(c1ccc(Cl)cc1)N1CCOCC1)OCO2 (stereo unspecified)
inactive: [13] 102 % of control | [14] 111 % of control | [15] 124 % of control

Cc1ccc(S)c(S)c1
inactive: [16] 100 % of control | [17] 108 % of control | [18] 100 % of control and 106 % of control and 113 % of control | [19] 101 % of control | dose: 400.0 mg/kg/injection, schedule: Q01DX009 (ip), vehicle: saline 94 % of control | dose: 600.0 mg/kg/injection, schedule: Q01DX009 (ip), vehicle: saline 91 % of control

CCN1CCC(=O)C1
inactive: [1] 104 % of control | [2] 105 % of control | [3] 105 % of control

Cc1ccc(CN(S(=O)(=O)c2ccc(C)cc2)S(=O)(=O)c2ccc(C)cc2)cc1
inactive: [20] 88 % of control | [21] 113 % of control

CCOc1cc2c(cc1C(C)c1ccc(OCc3ccccc3)c(OC)c1)OCO2 (stereo unspecified)
inactive: [8] 97 % of control | [9] 97 % of control | [10] 92 % of control

Cn1nnc2c(Cl)nccc21
inactive: dose: 100.0 mg/kg/injection, schedule: Q04DX002 (ip), vehicle: saline 105 % of control | dose: 200.0 mg/kg/injection, schedule: Q04DX002 (ip), vehicle: saline 100 % of control | dose: 400.0 mg/kg/injection, schedule: Q04DX002 (ip), vehicle: saline 102 % of control

CC(C)CC(NC(=O)c1cccnc1)C(=O)O (stereo unspecified)
inactive: [8] 104 % of control | [9] 99 % of control | [10] 93 % of control

CCCCCC(O)/C=C/[C@H]1C(O)CC2O/C(=C\CCCC(=O)O)C[C@@H]21 (stereo partly specified)
inactive: dose: 50.0 mg/kg/injection, schedule: Q01DX005 (ip), vehicle: saline 102 % of control | dose: 100.0 mg/kg/injection, schedule: Q01DX005 (ip), vehicle: saline 100 % of control | dose: 200.0 mg/kg/injection, schedule: Q01DX005 (ip), vehicle: saline 95 % of control

CN(C)P1(=S)OCC(C(C)(C)C)CN1C (stereo unspecified)
inactive: [2] 102 % of control | [3] 112 % of control

COC(c1ccc(OCc2ccccc2)cc1)C(Br)C(=O)c1ccc(Cl)cc1Cl (stereo unspecified)
inactive: [7] 88 % of control | [20] 101 % of control | [21] 88 % of control

C/C(=N\NC(=S)N1CCC(c2ccccc2)CC1)c1ccccn1
inactive: [4] 100 % of control | [5] 101 % of control

Cc1ccc2sc(=S)sc2c1
inactive: [22] 89 % of control | [23] 99 % of control | [24] 96 % of control

CN1CC2Cc3ccc(O)cc3C(C)(C2)C1 (stereo unspecified)
inactive: [25] 98 % of control | [16] 96 % of control | [7] 87 % of control | [17] 98 % of control

O=[N+]([O-])c1cccc(N=Nn2cccc2)c1
inactive: [6] 100 % of control | [7] 100 % of control | [20] 109 % of control

CN(C)CCCNc1c2c(nc3ccc(Cl)cc13)CCCC2
inactive: dose: 50.0 mg/kg/injection, schedule: Q01DX005 (ip), vehicle: saline with Tween-80 104 % of control | dose: 100.0 mg/kg/injection, schedule: Q01DX005 (ip), vehicle: saline with Tween-80 106 % of control

O=C(NNC(=O)c1ccc(Cl)cc1Cl)c1ccco1
inactive: [25] 100 % of control | [16] 102 % of control and 89 % of control | [7] 100 % of control | [17] 102 % of control and 97 % of control

Cc1cc(N2C(=O)CSC2=S)c([N+](=O)[O-])cc1C
inactive: [11] 91 % of control | [12] 89 % of control

c1ccc([S][Pb]([c]2ccccc2)([c]2ccccc2)[c]2ccccc2)cc1
inactive: dose: 6.25 mg/kg/injection, schedule: Q01DX001 (ip), vehicle: Klucel (hydroxypropylcellulose) (HPC) 96 % of control | dose: 12.5 mg/kg/injection, schedule: Q01DX001 (ip), vehicle: Klucel (hydroxypropylcellulose) (HPC) 122 % of control | dose: 25.0 mg/kg/injection, schedule: Q01DX001 (ip), vehicle: Klucel (hydroxypropylcellulose) (HPC) 114 % of control

C[C@]12CCC(=O)C=C1CC[C@H]1[C@@H]3C[C@@H](O)[C@](O)(C(=O)CO)[C@@]3(C)C[C@H](O)[C@@]12F
inactive: [16] 109 % of control | [17] 109 % of control | [18] 109 % of control

O=[N+]([O-])/C=C/c1cc(Cl)c(/C=C/[N+](=O)[O-])cc1Cl
inactive: [8] 108 % of control and 121 % of control | [9] 120 % of control and 122 % of control | [10] 106 % of control and 123 % of control | dose: 400.0 mg/kg/injection, schedule: Q01DX005 (ip), vehicle: Klucel (hydroxypropylcellulose) (HPC) 97 % of control

Cc1nnc2n1-c1ccc(Cl)cc1C(c1ccccc1)=[N+]([O-])C2
inactive: [7] 103 % of control | [20] 104 % of control

Cc1ccc(S(=O)(=O)N(CCCc2ccccc2)S(=O)(=O)c2ccc(C)cc2)cc1
inactive: [22] 96 % of control | [23] 97 % of control | [24] 100 % of control

O=C(CN1C(=O)c2ccccc2C1=O)OCCNCCCl
inactive: [17] 99 % of control | [18] 106 % of control | [19] 107 % of control

CN(C)CC(=O)Nc1ccc2c(c1)C(=O)c1ccc(NC(=O)CN(C)C)cc1C2=O
inactive: [8] 101 % of control | [9] 97 % of control | [10] 99 % of control

CC(=O)Nc1cc(Cl)cc2c1-c1ccc(Cl)cc1C2=O
inactive: [8] 88 % of control | [9] 94 % of control

C=C1C2(OS(=O)(=O)C(F)(F)F)CCC(C2)C1(C)C (stereo unspecified)
inactive: dose: 60.0 mg/kg/injection, schedule: Q01DX005 (ip), vehicle: saline 103 % of control | dose: 120.0 mg/kg/injection, schedule: Q01DX005 (ip), vehicle: saline 99 % of control | dose: 240.0 mg/kg/injection, schedule: Q01DX005 (ip), vehicle: saline 100 % of control

[Cl][Pt]([Cl])([Cl])[Cl]
inactive: [25] 123 % of control | [16] 111 % of control

O=[N+]([O-])c1oc2ccc3ccccc3c2c1CCO
inactive: [13] 97 % of control | [14] 110 % of control | [15] 117 % of control

COC(=O)C(=O)C1(c2nc3n(c2O)/C(=N/C(=O)Nc2ccc(Cl)cc2)N=N3)CCCCCC1=O (stereo unspecified)
inactive: [13] 100 % of control | [14] 99 % of control | [15] 94 % of control

C[Si](C)(C)C12CC3(CCCCC3)C1NC(=O)NC2=O (stereo unspecified)
inactive: dose: 25.0 mg/kg/injection, schedule: Q01DX005 (ip), vehicle: Klucel (hydroxypropylcellulose) (HPC) 108 % of control | [8] 96 % of control | [9] 90 % of control | [10] 88 % of control
